Columns and labels:
headache = experiment: Topical NSAID formulations in treatment of headache (inventors' observation); assay type: in vivo, human; conditions: topically applied to tender spot or area superficial to carotid, temporal and/or vertebral artery
From the text: Especially preferred compositions include a xanthine derivative in a concentration of about 4% (wt) to 70% (wt) and ketoprofen in a concentration of about 0.5% (wt) to 50% (wt). With respect to the xanthine derivative, the same considerations as described above apply. Furthermore, such particularly preferred compositions may be formulated in a lecithin-containing formulation or a pluronic-lecithin-organogel formulation (supra). It should be especially recognized, that compositions including a xanthine derivative or an NSAID have generally been described in the art. However, the inventors observed that formulations including an NSAID other than Ketoprofen generally fail to provide relief in treatment of a headache, when topically applied to a person (either to a tender spot, or to an area superficial to a carotid artery, a temporal artery and/or a vertebral artery). […] While not wishing to be bound by a particular hypothesis or theory, the inventors contemplate that the effect of Ketoprofen may be at least in part mediated by a muscle-relaxant effect rather than via a suppressive effect in inflammation.

fever = conditions: oral delivery; cited from earlier work

Row | Compound | relief in treatment of a headache (headache) | time to achieve sufficient concentration in the plasma to lower the fever (fever)
1 | CC(C(=O)O)c1cccc(C(=O)c2ccccc2)c1 (centres unmarked) [Ketoprofen, 2-(meta-benzoylphenyl)propionic acid] | the only NSAID effective in treatment of a headache | –
2 | CC(=O)Nc1ccc(O)cc1 [acetaminophen, Acetaminophen] | – | at least 20 minutes

— patent US7981901B2, “Compositions and methods for targeting cerebral circulation and treatment of headache” (priority 2001, dated 2011)
